From patent US11427548B2 (Arvinas Operations, Inc., priority 2015, dated 2022)
Where two headings read alike, the source gives them in different places.

Target: T1, Androgen Receptor (Homo sapiens, UniProt P10275)
T1 construct: endogenous in cells; host or cells: VCaP cells
T1 sequence (P10275 1-920): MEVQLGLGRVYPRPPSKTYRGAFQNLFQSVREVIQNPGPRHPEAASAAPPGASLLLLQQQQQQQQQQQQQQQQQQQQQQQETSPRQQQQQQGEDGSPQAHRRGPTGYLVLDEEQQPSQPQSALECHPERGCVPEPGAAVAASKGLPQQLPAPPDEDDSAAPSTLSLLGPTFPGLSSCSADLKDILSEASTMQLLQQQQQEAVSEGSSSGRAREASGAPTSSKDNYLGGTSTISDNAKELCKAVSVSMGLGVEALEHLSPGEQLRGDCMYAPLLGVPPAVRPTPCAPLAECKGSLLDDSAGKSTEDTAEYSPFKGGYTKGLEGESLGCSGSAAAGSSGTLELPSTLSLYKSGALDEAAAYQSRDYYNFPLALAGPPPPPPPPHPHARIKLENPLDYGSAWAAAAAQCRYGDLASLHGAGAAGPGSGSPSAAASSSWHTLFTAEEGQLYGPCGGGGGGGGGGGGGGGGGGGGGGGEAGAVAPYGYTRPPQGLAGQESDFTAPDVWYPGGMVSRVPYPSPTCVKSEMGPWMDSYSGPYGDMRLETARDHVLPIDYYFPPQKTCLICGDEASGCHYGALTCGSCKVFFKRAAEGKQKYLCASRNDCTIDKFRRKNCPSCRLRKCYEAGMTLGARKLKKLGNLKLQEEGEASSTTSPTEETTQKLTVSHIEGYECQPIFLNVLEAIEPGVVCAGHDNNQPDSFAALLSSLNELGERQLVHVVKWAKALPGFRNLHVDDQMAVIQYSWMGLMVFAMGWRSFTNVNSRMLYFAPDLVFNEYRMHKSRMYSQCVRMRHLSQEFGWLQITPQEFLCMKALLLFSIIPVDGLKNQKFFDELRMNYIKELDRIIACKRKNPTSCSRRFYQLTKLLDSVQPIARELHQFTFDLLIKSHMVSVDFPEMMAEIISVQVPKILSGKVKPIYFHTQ
Assay: Androgen Receptor ELISA assay (PathScan AR ELISA) in VCaP cells: AR degradation, Dmax and DC50
Format: cell-based
Procedure, shortened: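 VCaP cells in phenol red-free RPMI with 5% charcoal-stripped FBS were grown at least 3 days, then given compound as 7 half-log doses in 0.1% DMSO with 0.1 nM R1881 for 24 h. Lysates went into a sandwich AR ELISA with TMB read at 450 nm.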

[1] = VCaP cells; Table 36; read-out: VCaP DC50
[2] = VCaP, read-out: VCaP Dmax (%), VCaP cells; Table 36
[3] = VCaP, VCaP cells; Table 36; read-out: VCaP Dmax (%)

## Cc1ncsc1-c1ccc([C@H](C)NC(=O)[C@@H]2C[C@@H](O)CN2C(=O)[C@@H](NC(=O)CN2CCN(CCCc3ccc(C(=O)N[C@H]4C(C)(C)[C@H](Oc5ccc(C#N)c(Cl)c5)C4(C)C)cc3)[C@@H](CO)C2)C(C)(C)C)cc1 [Example 823, (2S,4R)-1-((S)-2-(2-((R)-4-(3-(4-(((1r,3R)-3-(3-chloro-4-cyanophenoxy)-2,2,4,4-tetramethylcyclobutyl)carbamoyl)phenyl)propyl)-3-(hydroxymethyl)piperazin-1-yl)acetamido)-3,3-dimethylbutanoyl)-4-hydroxy-N-((S)-1-(4-(4-methylthiazol-5-yl)phenyl)ethyl) pyrrolidine-2-carboxamide]
[1]
  DC50: < 50 nM
VCaP, read-out: VCaP Dmax (%)
  Dmax: > 71%

## Cc1ncsc1-c1ccc([C@H](C)NC(=O)[C@@H]2C[C@@H](O)CN2C(=O)[C@@H](NC(=O)CN2CCN(CCCc3ccc(C(=O)N[C@H]4C(C)(C)[C@H](Oc5ccc(C#N)c(Cl)c5)C4(C)C)cc3)[C@H](CO)C2)C(C)(C)C)cc1 [Example 824, (2S,4R)-1-((S)-2-(2-((S)-4-(3-(4-(((1r,3S)-3-(3-chloro-4-cyanophenoxy)-2,2,4,4-tetramethylcyclobutyl)carbamoyl)phenyl)propyl)-3-(hydroxymethyl)piperazin-1-yl)acetamido)-3,3-dimethylbutanoyl)-4-hydroxy-N-((S)-1-(4-(4-methylthiazol-5-yl)phenyl)ethyl) pyrrolidine-2-carboxamide]
[1]
  DC50: < 50 nM
VCaP, read-out: VCaP Dmax (%)
  Dmax: > 71%

## Cc1ncsc1-c1ccc([C@H](C)NC(=O)[C@@H]2C[C@@H](O)CN2C(=O)[C@@H](NC(=O)CN2CCC(CN3CCN(c4ccc(C(=O)N[C@H]5C(C)(C)[C@H](Oc6ccc(C#N)c(Cl)c6)C5(C)C)cn4)CC3)CC2)C(C)(C)C)cc1 [Example 825, N-((1r,3r)-3-(3-chloro-4-cyanophenoxy)-2,2,4,4-tetramethylcyclobutyl)-6-(4-((1-(2-(((S)-1-((2S,4R)-4-hydroxy-2-(((S)-1-(4-(4-methylthiazol-5-yl)phenyl)ethyl)carbamoyl)pyrrolidin-1-yl)-3,3-dimethyl-1-oxobutan-2-yl)amino)-2-oxoethyl)piperidin-4-yl)methyl)piperazin-1-yl)nicotinamide]
[1]
  DC50: < 50 nM
VCaP, read-out: VCaP Dmax (%)
  Dmax: > 71%

## Cc1ncsc1-c1ccc([C@H](CO)NC(=O)[C@@H]2C[C@@H](O)CN2C(=O)[C@@H](NC(=O)COCCN2[C@H](C)CN(c3ccc(C(=O)N[C@H]4C(C)(C)[C@H](Oc5ccc(C#N)c(Cl)c5)C4(C)C)cn3)C[C@@H]2C)C(C)(C)C)cc1 [Example 826, N-((1r,3R)-3-(3-chloro-4-cyanophenoxy)-2,2,4,4-tetramethylcyclobutyl)-6-((3S,5R)-4-(2-(2-(((S)-1-((2S,4R)-4-hydroxy-2-(((R)-2-hydroxy-1-(4-(4-methylthiazol-5-yl)phenyl)ethyl)carbamoyl)pyrrolidin-1-yl)-3,3-dimethyl-1-oxobutan-2-yl)amino)-2-oxoethoxy)ethyl)-3,5-dimethylpiperazin-1-yl)nicotinamide]
[1]
  DC50: < 50 nM
[2]
  Dmax: > 71%

## Cc1ncsc1-c1ccc([C@H](C)NC(=O)C2C[C@@H](O)CN2C(=O)C(NC(=O)CN2CCC(CCN3CCN(c4ccc(C(=O)NC5C(C)(C)C(Oc6ccc(C#N)c(Cl)c6)C5(C)C)cn4)CC3)CC2)C(C)(C)C)cc1 (stereo partly drawn) [Example 827, N-((1r,3r)-3-(3-chloro-4-cyanophenoxy)-2,2,4,4-tetramethylcyclobutyl)-6-(4-(2-(1-(2-(((S)-1-((2S,4R)-4-hydroxy-2-(((S)-1-(4-(4-methylthiazol-5-yl)phenyl)ethyl)carbamoyl)pyrrolidin-1-yl)-3,3-dimethyl-1-oxobutan-2-yl)amino)-2-oxoethyl)piperidin-4-yl)ethyl)piperazin-1-yl)nicotinamide]
[1]
  DC50: < 50 nM
[3]
  Dmax: > 71%

## Cc1ncsc1-c1ccc([C@H](CO)NC(=O)C2C[C@@H](O)CN2C(=O)C(NC(=O)CN2C3CCC2CN(CCCc2ccc(C(=O)NC4C(C)(C)C(Oc5ccc(C#N)c(Cl)c5)C4(C)C)cc2)C3)C(C)(C)C)cc1 (stereo partly drawn) [Example 828, (2S,4R)-1-((2S)-2-(2-(3-(3-(4-(((1r,3r)-3-(3-chloro-4-cyanophenoxy)-2,2,4,4-tetramethylcyclobutyl)carbamoyl)phenyl)propyl)-3,8-diazabicyclo[3.2.1]octan-8-yl)acetamido)-3,3-dimethylbutanoyl)-4-hydroxy-N-((R)-2-hydroxy-1-(4-(4-methylthiazol-5-yl)phenyl)ethyl) pyrrolidine-2-carboxamide]
VCaP, read-out: VCaP Dmax (%)
  Dmax: > 71%
read-out: VCaP DC50; VCaP cells; Table 36
  DC50: < 50 nM

## Cc1ncsc1-c1ccc([C@H](C)NC(=O)[C@@H]2C[C@@H](O)CN2C(=O)[C@@H](NC(=O)CN2CCN(CCC3CCN(c4ccc(C(=O)N[C@H]5C(C)(C)[C@H](Oc6ccc(C#N)c(Cl)c6)C5(C)C)cn4)C3)CC2)C(C)(C)C)cc1 (stereo partly drawn) [Example 829, N-((1r,3r)-3-(3-chloro-4-cyanophenoxy)-2,2,4,4-tetramethylcyclobutyl)-6-(3-(2-(4-(2-(((S)-1-((2S,4R)-4-hydroxy-2-(((S)-1-(4-(4-methylthiazol-5-yl)phenyl)ethyl)carbamoyl)pyrrolidin-1-yl)-3,3-dimethyl-1-oxobutan-2-yl)amino)-2-oxoethyl)piperazin-1-yl)ethyl)pyrrolidin-1-yl)nicotinamide]
[1]
  DC50: < 50 nM
VCaP, read-out: VCaP Dmax (%)
  Dmax: > 71%

## Cc1ncsc1-c1ccc([C@H](C)NC(=O)[C@@H]2C[C@@H](O)CN2C(=O)[C@H](c2cc(CCCCN3CCN(c4ccc(C(=O)N[C@H]5C(C)(C)[C@H](Oc6ccc(C#N)c(Cl)c6)C5(C)C)cn4)CC3)no2)C(C)C)cc1 [Example 830, N-((1r,3r)-3-(3-chloro-4-cyanophenoxy)-2,2,4,4-tetramethylcyclobutyl)-6-(4-(4-(5-((S)-1-((2S, 4R)-4-hydroxy-2-(((S)-1-(4-(4-methylthiazol-5-yl)phenyl)ethyl)carbamoyl)pyrrolidin-1-yl)-3-methyl-1-oxobutan-2-yl)isoxazol-3-yl)butyl)piperazin-1-yl)nicotinamide]
[1]
  DC50: > 501 nM
[2]
  Dmax: < 25%

## Cc1ncsc1-c1ccc([C@H](C)NC(=O)[C@@H]2C[C@@H](O)CN2C(=O)[C@@H](c2cc(CCCCN3CCN(c4ccc(C(=O)N[C@H]5C(C)(C)[C@H](Oc6ccc(C#N)c(Cl)c6)C5(C)C)cn4)CC3)no2)C(C)C)cc1 [Example 831, N-((1r,3r)-3-(3-chloro-4-cyanophenoxy)-2,2,4,4-tetramethylcyclobutyl)-6-(4-(4-(5-((R)-1-((2S, 4R)-4-hydroxy-2-(((S)-1-(4-(4-methylthiazol-5-yl)phenyl)ethyl)carbamoyl)pyrrolidin-1-yl)-3-methyl-1-oxobutan-2-yl)isoxazol-3-yl)butyl)piperazin-1-yl)nicotinamide]
[1]
  DC50: < 50 nM
[2]
  Dmax: > 71%

## Cc1ncsc1-c1ccc([C@H](C)NC(=O)[C@@H]2C[C@@H](O)CN2C(=O)[C@@H](NC(=O)CN[C@H]2C[C@H](OC3CCN(c4ccc(C(=O)N[C@H]5C(C)(C)[C@H](Oc6ccc(C#N)c(Cl)c6)C5(C)C)cn4)CC3)C2)C(C)(C)C)cc1 [Example 832, N-((1r,3r)-3-(3-chloro-4-cyanophenoxy)-2,2,4,4-tetramethylcyclobutyl)-6-(4-((1S,3r)-3-((2-(((S)-1-((2S,4R)-4-hydroxy-2-(((S)-1-(4-(4-methylthiazol-5-yl)phenyl)ethyl)carbamoyl)pyrrolidin-1-yl)-3,3-dimethyl-1-oxobutan-2-yl)amino)-2-oxoethyl)amino)cyclobutoxy)piperidin-1-yl)nicotinamide]
[1]
  DC50: < 50 nM
VCaP, read-out: VCaP Dmax (%)
  Dmax: > 71%

## Cc1ncsc1-c1ccc([C@H](C)NC(=O)[C@@H]2C[C@@H](O)CN2C(=O)[C@@H](NC(=O)CN2CCN(CCC3CCN(c4ccc(C(=O)N[C@H]5C(C)(C)[C@H](Oc6ccc(C#N)c(Cl)c6)C5(C)C)cn4)CC3)CC2)C(C)(C)C)cc1 [Example 833, N-((1r,3r)-3-(3-chloro-4-cyanophenoxy)-2,2,4,4-tetramethylcyclobutyl)-6-(4-(2-(4-(2-(((S)-1-((2S,4R)-4-hydroxy-2-(((S)-1-(4-(4-methylthiazol-5-yl)phenyl)ethyl)carbamoyl)pyrrolidin-1-yl)-3,3-dimethyl-1-oxobutan-2-yl)amino)-2-oxoethyl)piperazin-1-yl)ethyl)piperidin-1-yl)nicotinamide]
[1]
  DC50: < 50 nM
[3]
  Dmax: > 71%
